Literature values as cited in patent US20110059171A1 (LABORATORIOS SENOSIAIN S.A. DE C.V., priority 2008, published 2011).

Columns and labels:
[1] = in vivo

O=C(c1ccccc1)c1ccc2n1CCC2C(=O)O (racemic) [Ketorolac tromethamine, (+−)-5(benzoyl)-2,3-dihydro-1H-pyrrolizine-1-carboxylic acid tris (hydroxymethyl)methylamine]
water solubility: highly water-soluble

O=C(c1ccccc1)c1ccc2n1CCC2C(=O)O (stereo not drawn) [Ketorolac]
excreted without any change in urine [1]: about 90%
bound to proteins (proteins): More than 99%
